# Assays:
# [1] = tested on: PAR2-dependent Ca^2+ signaling; assay: PAR2-dependent Ca2+ signaling; assay type: cell-based
# Description: Addition of 1.75 μM of the potent PAR2 agonist 2at-LIGRL-NH2 (C134) induced Ca^2+ signaling in 50% of the cells within the experiment.
# [2] = tested on: PAR2-dependent MAPK signaling; assay: PAR2-dependent MAPK signaling (MAPK phosphorylation); assay type: cell-based
# PAR2 [3] = target: T1, PAR2 (Mus musculus, UniProt P55086); assay: Mechanical hypersensitivity / paw withdrawal response to PAR2 agonist 2AT injected into the hindpaw; assay type: in vivo; settings: mice
# T1 construct: from tissue; host or cells: live mice, hindpaw
# T1 sequence (P55086 26-399): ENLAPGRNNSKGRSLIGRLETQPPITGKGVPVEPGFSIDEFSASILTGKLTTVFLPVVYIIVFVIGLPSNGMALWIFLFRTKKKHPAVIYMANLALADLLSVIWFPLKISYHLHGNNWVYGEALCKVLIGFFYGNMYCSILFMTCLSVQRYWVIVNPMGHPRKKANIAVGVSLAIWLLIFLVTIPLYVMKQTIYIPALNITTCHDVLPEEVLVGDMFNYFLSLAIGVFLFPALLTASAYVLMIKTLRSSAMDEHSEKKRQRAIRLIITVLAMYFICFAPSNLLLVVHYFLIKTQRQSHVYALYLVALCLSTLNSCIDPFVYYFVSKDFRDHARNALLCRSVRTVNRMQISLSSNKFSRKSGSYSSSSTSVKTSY
# Description: Experiments were conducted to test C781 in vivo in mice for its ability to block mechanical hypersensitivity (a pain measure) in response to a PAR2 agonist (2AT-LIGRL, also known as 2AT).
# Animals were injected with 2at (black), 2at+C781(yellow), or C781 alone (green).
# Animals were systemically treated with C781 or control and then local injected with 2at (black with control; yellow with C781) or with vehicle alone (green). […] This is important because previous PAR2 antagonists have not had systemic bioavailability and have only worked with very high doses via intravenous injection.
# PAR2 [4] = target: T2, PAR2 (Homo sapiens, UniProt P55085); assay: Inhibition of PAR2 response induced by 2at-LIGRL-NH2 (FIG. 1); assay type: cell-based; settings: antagonist against agonist 2at-LIGR1-NH2
# T2 sequence (P55085 26-397): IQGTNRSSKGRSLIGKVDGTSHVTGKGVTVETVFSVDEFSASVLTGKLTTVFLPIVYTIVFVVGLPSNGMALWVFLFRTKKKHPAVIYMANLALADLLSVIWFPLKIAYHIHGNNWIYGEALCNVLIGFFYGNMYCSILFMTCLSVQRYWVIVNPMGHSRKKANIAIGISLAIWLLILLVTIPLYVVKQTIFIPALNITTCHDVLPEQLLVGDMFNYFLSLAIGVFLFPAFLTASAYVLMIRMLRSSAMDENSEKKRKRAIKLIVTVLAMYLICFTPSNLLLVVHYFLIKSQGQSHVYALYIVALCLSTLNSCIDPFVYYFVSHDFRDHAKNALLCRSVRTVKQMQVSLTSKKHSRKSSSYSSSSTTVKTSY
# PAR2 [5] = target: T1, PAR2; assay: 2AT-evoked hyperalgesic priming in the hindpaw; assay type: in vivo; settings: given locally into the mouse hindpaw; FIG. 3
Molecule,"cells showing Ca2+ signaling ([1]; agonist at 1.75 μM, percent of the cells within the experiment) [%]","induction of MAPK phosphorylation ([2]; agonist at 600 nM, set as 100% response)","paw withdrawal response (pain) induced by agonist (PAR2 [3]; 2at injected into hindpaw, lower numbers indicative of pain)",concentration at which the 2at-LIGR1-NH2-induced PAR2 response was fully limited / compound was effective (PAR2 [4]) [nM],"effect on PAR2-dependent Ca2+ signaling ([1]; administered with 1.75 μM 2at-LIGRL-NH2 (C134), FIG. 6)",effect on 2AT-evoked hyperalgesic priming (PAR2 [5]),"IC50 ([2]; response induced by 600 nM 2at-LIGRL-NH2 (100% response), 95% CI: 3.4 μM-21 μM, FIG. 5, read-out: IC50 for reduction of PAR2-dependent MAPK phosphorylation) [µM]","effect on 2at-induced paw withdrawal response (pain) (PAR2 [3]; C781 given intraperitoneally 30 min prior to 2AT injection into the hindpaw, FIG. 4)","effect on paw withdrawal response of compound alone (PAR2 [3]; C781 injected locally with vehicle alone (no 2at), FIG. 2)","effect on 2at-induced paw withdrawal response (pain) (PAR2 [3]; C781 locally administered into hindpaw together with 2at, FIG. 2)","effect on paw withdrawal response after vehicle injection (PAR2 [3]; systemically administered C781, local vehicle alone, FIG. 4)"
"2-aminothiazol-LIGRL-NH2 [2at-LIGRL-NH2, reference compound]",50,induced significant phosphorylation of MAPK,induced a rapid withdrawal response,–,–,–,–,–,–,–,–
CC(C)CC(=O)N1C[C@H](NC(=O)c2csc(N)n2)C(=O)N2C1CN(CC1CCNCC1)C(=O)[C@@H]2CC(C)C (stereo partly drawn) [C732],–,–,–,100 to 300,–,–,–,–,–,–,–
CC(C)CC(=O)N[C@H]1CN(C(=O)c2ccco2)C2CN(CC3CCNCC3)C(=O)[C@H](CC(C)C)N2C1=O (stereo partly drawn) [C781],–,–,–,30 to 300,no significant effect,blocked 2AT-evoked hyperalgesic priming,8.5,reduced the 2at response,had no effect,reduced the 2at response,had no effect on vehicle treatment

# — US11952379B2, “Small molecule modulators of PAR2 and uses thereof” (Arizona Board of Regents on Behalf of the University of …, priority 2018, dated 2024)
